Source: ChEMBL document CHEMBL4732033, “New prodrugs and analogs of the phenazine 5,10-dioxide natural products iodinin and myxin promote selective cytotoxicity towards human acute myeloid leukemia cells” (RSC Med Chem, 2021)

Legend:
NRK [1] = experiment: Cytotoxicity against rat NRK cells assessed as reduction in cell viability incubated for 24 hrs under 2% O2 condition by WST-1 assay; format: cell-based
NRK [2] = experiment: Cytotoxicity against rat NRK cells assessed as reduction in cell viability incubated for 24 hrs under 19% O2 condition by WST-1 assay; format: cell-based
H9c2 [3] = experiment: Cytotoxicity against rat H9c2 cells assessed as reduction in cell viability incubated for 24 hrs under 19% O2 condition by WST-1 assay; format: cell-based; conditions: H9c2, 24 h
MOLM-13 [4] = experiment: Cytotoxicity against human MOLM13 cells assessed as reduction in cell viability incubated for 24 hrs under 2% O2 condition by WST-1 assay; format: functional, cell-based; conditions: MOLM-13, 24 h
MOLM-13 [5] = experiment: Cytotoxicity against human MOLM13 cells assessed as reduction in cell viability incubated for 24 hrs under 19% O2 condition by WST-1 assay; format: functional, cell-based; conditions: MOLM-13, 24 h
[6] = Selectivity index, ratio of EC50 for rat NRK cells to EC50 for human MOLM13 cells under 19% O2 condition; format: toxicity; conditions: NRK cells versus MOLM13 cells, read-out: Ratio EC50
[7] = Selectivity index, ratio of EC50 for rat NRK cells to EC50 for human MOLM13 cells under 2% O2 condition; format: toxicity; conditions: NRK cells versus MOLM13 cells, read-out: Ratio EC50
[8] = Selectivity index, ratio of EC50 for rat NRK cells to EC50 for human MOLM13 cells; format: toxicity; conditions: NRK cells versus MOLM13 cells, read-out: Ratio EC50
[9] = Selectivity index, ratio of EC50 for rat H9c2 cells to EC50 for human MOLM13 cells; format: toxicity; conditions: H9c2 cells versus MOLM13 cells, read-out: Ratio EC50
[10] = Solubility of the compound in DMSO; format: physicochemical
NRK [11] = experiment: Cytotoxicity against rat NRK cells assessed as reduction in cell viability incubated for 24 hrs under 19% O2 condition by Hoechst 33342 staining based microscopic analysis
NRK [12] = experiment: Cytotoxicity against rat NRK cells assessed as reduction in cell viability incubated for 24 hrs under 2% O2 condition by Hoechst 33342 staining based microscopic analysis
H9c2 [13] = experiment: Cytotoxicity against rat H9c2 cells assessed as reduction in cell viability incubated for 24 hrs under 19% O2 condition by Hoechst 33342 staining based microscopic analysis; conditions: H9c2, 24 h

Row | Compound | EC50 (NRK [1]) [µM] | EC50 (NRK [2]) [µM] | EC50 (H9c2 [3]) [µM] | EC50 (MOLM-13 [4]) [µM] | EC50 (MOLM-13 [5]) [µM] | selectivity ratio [6] | selectivity ratio [7] | selectivity ratio [8] | selectivity ratio [9] | solubility [10] | EC50 (NRK [11]) [µM] | EC50 (NRK [12]) [µM] | EC50 (H9c2 [13]) [µM]
1 | [O-][n+]1c2cccc(O)c2[n+]([O-])c2cccc(O)c21 | > 50 | > 50 | > 50 | – | – | – | – | – | – | – | – | – | –
2 | CCOC(=O)COc1cccc2c1[n+]([O-])c1cccc(O)c1[n+]2[O-] | 18 | 12 | 15 | – | – | – | – | – | – | – | – | – | –
3 | COc1cccc2c1[n+]([O-])c1cccc(O)c1[n+]2[O-] | 76 | 77 | 46 | – | – | – | – | – | – | – | – | – | –
4 | CCN(CC)C(=O)COc1cccc2c1[n+]([O-])c1cc(C)c(C)cc1[n+]2[O-] | 52 | 21 | 41 | 3.4 | 1.8 | – | – | – | – | – | – | – | –
5 | CCOC(=O)COc1cccc2c1[n+]([O-])c1cc(Br)c(Br)cc1[n+]2[O-] | 9.7 | 10 | 3.3 | 1.6 | 2.4 | – | – | – | – | – | – | – | –
6 | Cc1cc2c(cc1C)[n+]([O-])c1c(O)cccc1[n+]2[O-] | > 50 | > 50 | > 50 | 2.3 | 2.8 | – | – | – | – | – | – | – | –
7 | CC(C)(C)OC(=O)COc1cccc2c1[n+]([O-])c1ccccc1[n+]2[O-] | 25 | 26 | 20 | 1.9 | 2.2 | – | – | – | – | – | – | – | –
8 | CN1CCN(C(=O)Oc2cccc3c2[n+]([O-])c2cc(Cl)c(Cl)cc2[n+]3[O-])CC1 | 15 | 11 | 3.2 | 0.32 | 0.34 | > 30 | 45 | – | – | – | – | – | –
9 | Cc1cc2c(cc1C)[n+]([O-])c1c(OC(=O)N3CCCC3)cccc1[n+]2[O-] | 8.9 | 6.6 | 8.7 | 0.78 | 1.5 | – | – | – | – | – | – | – | –
10 | CCOC(=O)Oc1cccc2c1[n+]([O-])c1cccc(OC(=O)OCC)c1[n+]2[O-] | > 25 | > 25 | > 25 | 4 | 6.1 | – | – | – | – | – | – | – | –
11 | CN1CCN(C(=O)Oc2cccc3c2[n+]([O-])c2cccc(O)c2[n+]3[O-])CC1 | 59 | 53 | 100 | 1.4 | 1.5 | – | – | > 15 | > 15 | – | – | – | –
12 | Cc1cc2c(cc1C)[n+]([O-])c1c(OC(=O)N3CCN(C)CC3)cccc1[n+]2[O-] | 13 | 12 | 9.4 | 0.54 | 0.63 | – | – | – | – | – | – | – | –
13 | CN1CCN(C(=O)Oc2cccc3c2[n+]([O-])c2cc4ccccc4cc2[n+]3[O-])CC1 | 7.5 | 2 | 2.3 | 1.8 | 2.8 | – | – | – | – | – | – | – | –
14 | CN1CCN(C(=O)Oc2cccc3c2[n+]([O-])c2cc(Br)c(Br)cc2[n+]3[O-])CC1 | 7.6 | 6.2 | 2.2 | 0.23 | 0.41 | – | – | – | – | – | – | – | –
15 | [O-][n+]1c2ccccc2[n+]([O-])c2c(O)cccc21 | > 100 | 79 | > 100 | 12 | 11 | – | – | – | – | – | – | – | –
16 | O=C(Oc1cccc2c1[n+]([O-])c1cccc(O)c1[n+]2[O-])N1CCCC1 | 15 | 9.6 | 12 | 0.79 | 0.86 | – | – | > 15 | > 15 | – | – | – | –
17 | COc1cccc2c1[n+]([O-])c1cccc(OC(=O)N(C)C)c1[n+]2[O-] | 29 | 22 | 35 | 1.7 | 1.9 | – | – | > 15 | > 15 | – | – | – | –
18 | CC(C)(C)C(=O)Oc1cccc2c1[n+]([O-])c1cccc(OC(=O)C(C)(C)C)c1[n+]2[O-] | – | – | > 25 | 8.9 | 11 | – | – | – | – | – | – | – | –

Row | Compound | EC50 (NRK [1]) [µM] | EC50 (NRK [2]) [µM] | EC50 (H9c2 [3]) [µM] | EC50 (MOLM-13 [4]) [µM] | EC50 (MOLM-13 [5]) [µM] | selectivity ratio [6] | selectivity ratio [7] | selectivity ratio [8] | selectivity ratio [9] | solubility [10] | EC50 (NRK [11]) [µM] | EC50 (NRK [12]) [µM] | EC50 (H9c2 [13]) [µM]
19 | CCOC(=O)COc1cccc2c1[n+]([O-])c1ccccc1[n+]2[O-] | 25 | 26 | 20 | 1.7 | 1.5 | – | – | – | – | – | – | – | –
20 | [O-][n+]1c2cc3ccccc3cc2[n+]([O-])c2c(O)cccc21 | – | – | – | > 10 | – | – | – | – | – | Insoluble | – | – | –
21 | CCOC(=O)COc1cccc2c1[n+]([O-])c1cc(Cl)c(Cl)cc1[n+]2[O-] | 4.7 | 3.1 | 1.3 | 0.38 | 0.41 | – | – | – | – | – | – | – | –
22 | CN(C)C(=O)Oc1cccc2c1[n+]([O-])c1cccc(O)c1[n+]2[O-] | 62 | 49 | 64 | 0.7 | 0.89 | – | – | > 15 | > 15 | – | – | – | –
23 | COc1cccc2c1[n+]([O-])c1cccc(OC(=O)N3CCN(C)CC3)c1[n+]2[O-] | 39 | 26 | 26 | 0.98 | 1 | – | – | > 15 | > 15 | – | – | – | –
24 | CCCCC(=O)Oc1cccc2c1[n+]([O-])c1cccc(OC(=O)CCCC)c1[n+]2[O-] | – | – | > 25 | 22 | 36 | – | – | – | – | – | – | – | –
25 | CCN(CC)C(=O)COc1cccc2c1[n+]([O-])c1ccccc1[n+]2[O-] | 16 | 13 | 23 | 1.4 | 1.2 | – | – | – | – | – | – | – | –
26 | Cc1c(C)[n+]([O-])c2c(O)cccc2[n+]1[O-] | – | – | – | > 200 | > 200 | – | – | – | – | – | – | – | –
27 | CCOC(=O)Oc1cccc2c1[n+]([O-])c1cccc(O)c1[n+]2[O-] | – | – | > 100 | 66 | 50 | – | – | – | – | – | – | – | –
28 | CN(C)C(=O)Oc1cccc2c1[n+]([O-])c1ccccc1[n+]2[O-] | 25 | 19 | 16 | 2.1 | 1.3 | – | – | – | – | – | – | – | –
29 | O=C(Oc1cccc2c1[n+]([O-])c1ccccc1[n+]2[O-])N1CCCC1 | 21 | 18 | 13 | 1.2 | 1.5 | – | – | – | – | – | – | – | –
30 | CCOC(=O)COc1cccc2c1[n+]([O-])c1cc(C)c(C)cc1[n+]2[O-] | > 100 | – | > 100 | 6.3 | 8.3 | – | – | – | – | – | – | – | –
31 | Cc1c(C)[n+]([O-])c2c(OC(=O)N3CCN(C)CC3)cccc2[n+]1[O-] | – | – | – | > 200 | > 200 | – | – | – | – | – | – | – | –
32 | Cc1c(C)[n+]([O-])c2c(OC(=O)N3CCOCC3)cccc2[n+]1[O-] | – | – | – | > 200 | > 200 | – | – | – | – | – | – | – | –
33 | COc1cccc2c1[n+]([O-])c1cccc(OC(=O)N3CCCC3)c1[n+]2[O-] | 35 | 32 | 35 | 1.8 | 2 | – | – | > 15 | > 15 | – | – | – | –
34 | CN1CCN(C(=O)Oc2cccc3c2[n+]([O-])c2ccccc2[n+]3[O-])CC1 | 37 | 25 | 36 | 1.9 | 1.5 | – | – | – | – | – | – | – | –
35 | Nc1n[n+]([O-])c2ccccc2[n+]1[O-] [TIRAPAZAMINE] | – | – | – | – | – | – | – | – | – | – | > 100 | 35 | > 100
